Reference: patent US10004687B2 (priority 2005, dated 2018)
Values after ≈ are worked out from the molar mass of the structure shown. Values joined by “and” are separate entries in the source; they are usually repeats but may differ in a detail not shown here. Equal values may be shown once. Read-outs that look alike come from different tables or passages of the source.

What was measured:
[1] = test system: ASPC-1 pancreatic carcinoma cells; assay: MTT proliferation/survival assay, 72 hours incubation; assay type: cell-based; details: Homo sapiens, ASPC1, ASPC-1, MTT assay
Procedure: (§1) Controls were exposed to 0.1% v/v DMSO. Proliferation and survival of the pancreatic cells were assessed by MTT assay, a standard colorimetric assay used to measure cell survival and proliferation (Mosman, 1983). MTT (3-[4,5-cimethylthiazol-2-yl]-2,5-diphenyl tetrazolium bromide) is cleaved by living cells to yield a dark blue formazan product. The color is quantitated by spectrophotometer and reflects cellular proliferation and survival. […] The control for each assay was exposed to 0.1% v/v DMSO.
(§2) MTT proliferation/survival assay was performed after 72 hours of incubation.
(§3) FIGS. 5-10 show graphs of the results of the assays using Bxpc-3, Capan-1, Capan-2, HS766-1 and ASPC-1 cell lines, respectively. […] The MTT assay was performed after pancreatic cells were exposed for 72 hours to each compound at concentrations ranging from 0 to 5 μg/ml.

[2] = test system: Bxpc-3 pancreatic carcinoma cells; assay: as above; assay type: cell-based; details: Homo sapiens
Procedure: as §1, §2, §3

[3] = test system: Capan-1 pancreatic carcinoma cells; assay: as above; assay type: cell-based; details: Homo sapiens
Procedure: as §1, §2, §3

[4] = test system: Capan-2 pancreatic carcinoma cells; assay: as above; assay type: cell-based; details: Homo sapiens, Capan-2, 72 h, CAPAN-2, MTT assay
Procedure: as §1, §2, §3

[5] = test system: HS766-T pancreatic carcinoma cells; assay: as above; assay type: cell-based; details: Hs766T
Procedure: as §1, §2, §3

[6] = test system: pancreatic Bxpc-3, Capan-1, Capan-2, HS766-T and ASPC-1 cells; assay: MTT proliferation/survival assay, statements on all five pancreatic lines; assay type: cell-based; details: seventy-two hours of exposure
Procedure: as §1, §2, §3

[7] = test system: pancreatic BxPC-3 or HS766-T cells; assay: Apoptosis assay, Annexin-V/Proopidium iodide staining (FACS analysis); assay type: cell-based; details: concentrations equal to IC50 or IC90 of liposomal curcumin, 72 hours
Procedure: Apoptosis assay was performed using either pancreatic BxPC-3 or HS766-T cells. […] After incubation for 72 hours, the cells were assayed using Annexin-V/Proopidium iodide staining (FACS analysis) to determine how much apoptosis had occurred.

[8] = animal studies to date; cited from earlier work
[9] = cited from earlier work

COc1cc(C=CC(=O)CC(=O)C=Cc2ccc(O)c(OC)c2)ccc1O [free curcumin, (E,E)-1,7-bis(4-hydroxy-3-methoxyphenyl)-1,6-heptadiene-3,5,-dione]
IC50 [1]: 4 µg/mL and 10.8 µM | IC90 [1]: 10 µg/mL and 27 µM | IC50 ([2]; read-out: 50% inhibitory concentration (IC50), BxPC-3 cells, approximate): ~5 µM | IC50 ([2]; BXPC-3, MTT assay, 72 hours incubation, read-out: IC50): 2 µg/mL and 5.4 µM | IC90 ([2]; BXPC-3, MTT assay, 72 hours incubation, read-out: IC90): 5 µg/mL and 13.5 µM | IC90 ([2]; BxPC-3 cells, approximate, read-out: 90% inhibitory concentration (IC90)): ~14 µM | IC50 ([3]; read-out: 50% inhibitory concentration (IC50), Capan-1 cells, approximate): ~5 µM | IC50 ([3]; CAPAN-1, MTT assay, 72 hours incubation, read-out: IC50): 2 µg/mL and 5.4 µM | IC90 ([3]; CAPAN-1, MTT assay, 72 hours incubation, read-out: IC90): 5 µg/mL and 13.5 µM | IC90 ([3]; Capan-1 cells, approximate, read-out: 90% inhibitory concentration (IC90)): ~14 µM | IC50 [4]: 17 µg/mL (≈ 46.1 µM) | IC90 [4]: 35 µg/mL (≈ 95 µM) | IC50 [5]: 2.6 µg/mL and 7 µM | IC90 [5]: 8 µg/mL and 21.6 µM | pancreatic cell growth (MTT) [6]: inhibited pancreatic cell growth of all five lines tested in a concentration-dependent manner | apoptosis after treatment [7]: dose-related apoptosis | LD50 [8]: never reached an LD50 | solubility in ethanol, alkalis, ketones, acetic acid and chloroform [9]: soluble | solubility in water ([9]; water): insoluble
